Laboratory results from PubChem BioAssay AID1117351.
Calls of active or inactive are those of the source. How the calls were made is not given here.

System: HeLa cells, 4N DNA content increase
Assay: HeLa 4N DNA content increase, dose response, cell-based, IC50 (AID 1117351)

IC50 | SMILES
> 10 µM (inactive) | C[n+]1c2cc(N)ccc2cc2ccc(N)cc21 (tested in a mixture with another compound)
> 10 µM (inactive) | CCCCCCCCCCCCCC[N+](C)(C)C
> 10 µM (inactive) | CCCCCCCCCCCC(=O)[O][Sn]([CH2]CCC)([CH2]CCC)[O]C(=O)CCCCCCCCCCC

SMILES | IC50
Cc1ccc([N+](=O)[O-])[c]2c1[O][Hg]2 | > 10 µM (inactive)
